Laboratory results: ChEMBL document CHEMBL5661943, “ASAP - In vitro antiviral effect” (2024)

Legend:
Zika virus [1] = assay: Functional CPE-based assay to measure dose dependent changes in antiviral-drug inhibitory efficacy against Zika virus MR766 in Vero E6 miRFP670 cells (cotreated with P-gp inhibitor, CP100356). Cells are treated with antiviral candidates that are serially diluted. EC50 is reported via analysis of MTS assay as a readout of CPE. The assay has been performed by KU Leuven.; assay type: organism-based, Chlorocebus sabaeus, Vero C1008; conditions: Zika virus, Vero C1008; for EC90: Baseline response 0 %, Maximum response 100 %, P-gp concentration 500 nM, P-gp inhibitor CP100356
dengue virus type 2 [2] = assay: Functional assay to measure dose dependent changes in antiviral-drug inhibitory efficacy against Dengue virus type 2 New Guinea C in Vero E6 miRFP670 cells (cotreated with P-gp inhibitor, CP100356). Cells are treated with antiviral candidates that are serially diluted, following infection, cells are fixed. EC50 is reported via analysis of fluorescence intensity using high-content imager. The …; assay type: organism-based, Chlorocebus sabaeus, Vero C1008; conditions: Dengue virus; for EC90: P-gp concentration 500 nM, P-gp inhibitor CP100356
Zika virus [3] = assay: EC50 is reported via analysis of immunofluorescence staining. The assay has been performed by Icahn School of Medicine at Mount Sinai.; assay type: functional, organism-based, Chlorocebus sabaeus, VeroE6/TMPRSS2; conditions: Zika virus; for EC90: P-gp concentration 2 uM, P-gp inhibitor Elacidar
dengue virus type 2 [4] = assay: Functional immunofluorescence assay to measure dose dependent changes in antiviral-drug inhibitory efficacy against Dengue virus type 2 Thailand/16681/84 in Vero E6/TMPRSS2 cells (cotreated with P-gp inhibitor, Elacridar). Cells are treated with antiviral candidates that are serially diluted, following infection, cells are fixed. EC50 is reported via analysis of immunofluorescence staining. The assay has been performed by Icahn School of Medicine at Mount Sinai.; assay type: organism-based, Chlorocebus sabaeus, VeroE6/TMPRSS2; conditions: Dengue virus; for EC90: P-gp concentration 2 uM, P-gp inhibitor Elacidar

SMILES: O=C(NC[C@H]1CCCO1)[C@H](Nc1ccc2c(c1)CNC2)c1cc(Cl)cc2[nH]ncc12
- EC50 (Zika virus [1]): > 50 µM
- EC90 (Zika virus [1]; Hill slope 0.096, Maximum measured 37.493 %, Minimum measured 16.803 %, R squared 0.054): > 50 µM
- EC50 (dengue virus type 2 [2]; Vero C1008): > 6.25 µM
- EC90 (dengue virus type 2 [2]; Vero C1008, Maximum measured 107.029 %, Minimum measured 98.467 %): > 6.25 µM
- EC50 (Zika virus [3]; VeroE6/TMPRSS2): 0.309 µM
- EC90 (Zika virus [3]; VeroE6/TMPRSS2, Baseline response 0 %, Hill slope -0.364, Maximum measured 91.96 %, Maximum response 100 %, Minimum measured 21.463 %, R squared 0.587): > 16.7 µM
- EC50 (dengue virus type 2 [4]; VeroE6/TMPRSS2): > 16.7 µM
- EC90 (dengue virus type 2 [4]; VeroE6/TMPRSS2, Maximum measured 188.503 %, Minimum measured 79.522 %): > 16.7 µM

SMILES: Cn1cc2cc(Cl)cc(C(=O)Nc3ccc4c(c3)CNC4)c2n1
- EC50 (Zika virus [1]): 0.514 µM
- EC90 (Zika virus [1]; Hill slope 4.196, Maximum measured 85.26 %, Minimum measured 23.993 %, R squared 0.942): > 0.781 µM
- EC50 (dengue virus type 2 [2]; Vero C1008): 0.704 µM
- EC90 (dengue virus type 2 [2]; Vero C1008, Baseline response 0 %, Hill slope 0.764, Maximum measured 122.857 %, Maximum response 100 %, Minimum measured 34.33 %, R squared 0.405): < 0.391 µM
- EC50 (Zika virus [3]; VeroE6/TMPRSS2): 0.643 µM
- EC90 (Zika virus [3]; VeroE6/TMPRSS2, Baseline response 0 %, Hill slope -0.814, Maximum measured 136.159 %, Maximum response 100 %, Minimum measured 33.863 %, R squared 0.555): > 5.56 µM
- EC50 (dengue virus type 2 [4]; VeroE6/TMPRSS2): > 5.56 µM
- EC90 (dengue virus type 2 [4]; VeroE6/TMPRSS2, Maximum measured 98.349 %, Minimum measured 47.733 %): > 5.56 µM

SMILES: O=C(Nc1ccc2c(c1)CNC2)c1cc(C(F)(F)F)cc2[nH]ccc12
- EC50 (Zika virus [1]): 45.6 µM
- EC90 (Zika virus [1]; Hill slope 3.148, Maximum measured 56.87 %, Minimum measured -2.102 %, R squared 0.945): > 50 µM
- EC50 (dengue virus type 2 [2]; Vero C1008): > 50 µM
- EC90 (dengue virus type 2 [2]; Vero C1008, Baseline response 0 %, Hill slope -0.556, Maximum measured 107.588 %, Maximum response 100 %, Minimum measured 39.301 %, R squared 0.196): > 50 µM
- EC50 (Zika virus [3]; VeroE6/TMPRSS2): > 50 µM
- EC90 (Zika virus [3]; VeroE6/TMPRSS2, Maximum measured 116.047 %, Minimum measured 72.993 %): > 50 µM
- EC50 (dengue virus type 2 [4]; VeroE6/TMPRSS2): > 16.7 µM
- EC90 (dengue virus type 2 [4]; VeroE6/TMPRSS2, Baseline response 0 %, Hill slope -15.878, Maximum measured 193.651 %, Maximum response 148.635 %, Minimum measured 63.423 %, R squared 0.446): > 16.7 µM

SMILES: Cn1cc(CCc2nc3c(C(=O)Nc4ccc5c(c4)CNC5)cc(Cl)cc3[nH]2)cn1
- EC50 (Zika virus [1]): > 50 µM
- EC90 (Zika virus [1]; Hill slope 0.081, Maximum measured 22.254 %, Minimum measured 2.34 %, R squared 0.041): > 50 µM
- EC50 (dengue virus type 2 [2]; Vero C1008): > 50 µM
- EC90 (dengue virus type 2 [2]; Vero C1008, Maximum measured 132.966 %, Minimum measured 89.816 %): > 50 µM
- EC50 (Zika virus [3]; VeroE6/TMPRSS2): > 16.7 µM
- EC90 (Zika virus [3]; VeroE6/TMPRSS2, Maximum measured 69.995 %, Minimum measured 22.891 %): > 16.7 µM
- EC50 (dengue virus type 2 [4]; VeroE6/TMPRSS2): > 16.7 µM
- EC90 (dengue virus type 2 [4]; VeroE6/TMPRSS2, Baseline response 0 %, Hill slope -0.053, Maximum measured 79.122 %, Maximum response 100 %, Minimum measured 42.376 %, R squared 0.043): > 16.7 µM

SMILES: CNC(=O)[C@H](Nc1ccc2c(c1)CNC2)c1cc(Cl)cc2[nH]ncc12
- EC50 (Zika virus [1]): > 50 µM
- EC90 (Zika virus [1]; Hill slope 0.1, Maximum measured 6.056 %, Minimum measured 1.325 %, R squared 0.024): > 50 µM
- EC50 (dengue virus type 2 [2]; Vero C1008): > 50 µM
- EC90 (dengue virus type 2 [2]; Vero C1008, Baseline response 0 %, Hill slope 0.363, Maximum measured 102.287 %, Maximum response 100 %, Minimum measured 71.268 %, R squared 0.122): > 50 µM
- EC50 (Zika virus [3]; VeroE6/TMPRSS2): > 50 µM
- EC90 (Zika virus [3]; VeroE6/TMPRSS2, Maximum measured 122.029 %, Minimum measured 43.627 %): > 50 µM
- EC90 (Zika virus [3]; VeroE6/TMPRSS2, Baseline response 0 %, Hill slope 0.082, Maximum measured 101.866 %, Maximum response 100 %, Minimum measured 51.114 %, R squared 0.025): > 50 µM
- EC50 (dengue virus type 2 [4]; VeroE6/TMPRSS2): > 50 µM
- EC90 (dengue virus type 2 [4]; VeroE6/TMPRSS2, Maximum measured 241.837 %, Minimum measured 83.65 %): > 50 µM
